Patent publication US6204293A, “Inhibitors of protein isoprenyl transferases” (University of Pittsburgh, priority 1998, dated 2001)
Where a name gives a salt, the structure may show the parent alone.

Biological target: T1, Rat brain protein farnesyltransferase (Rattus norvegicus, UniProt Q02293+Q04631)
T1 construct: Rat brain protein farnesyltransferase activity is measured; from tissue; host or cells: rat brain
Assay: % inhibition of farnesylation, scintillation proximity assay with biotin-K Ras B fragment
Assay type: biochemical
Conditions: Table 2; 1 × 10^-6 M
Procedure, shortened: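 Scintillation proximity read-out of farnesylation, using a biotinylated K Ras B fragment (0.1 mM final) in place of biotin-lamin. Enzyme purified from rat brain; results given as % inhibition.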

T1 sequence (Q02293 whole entry, one chain of several): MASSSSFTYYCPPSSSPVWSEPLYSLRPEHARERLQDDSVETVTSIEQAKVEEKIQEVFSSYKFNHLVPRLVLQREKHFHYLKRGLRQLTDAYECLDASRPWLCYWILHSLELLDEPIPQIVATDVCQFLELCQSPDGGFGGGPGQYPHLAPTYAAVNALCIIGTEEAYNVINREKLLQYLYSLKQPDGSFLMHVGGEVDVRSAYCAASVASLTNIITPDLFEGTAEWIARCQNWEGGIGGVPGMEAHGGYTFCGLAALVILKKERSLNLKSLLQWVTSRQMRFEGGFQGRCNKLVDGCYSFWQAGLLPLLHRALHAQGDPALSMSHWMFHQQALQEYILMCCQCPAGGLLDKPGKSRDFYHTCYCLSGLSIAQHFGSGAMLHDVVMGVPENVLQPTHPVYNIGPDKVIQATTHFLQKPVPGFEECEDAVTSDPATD

First: CSCC[C@H](NC(=O)c1ccc(NC(=O)OCc2cncs2)cc1-c1ccccc1C)C(=O)O [Example 902]
Second: CSCC[C@H](NC(=O)c1ccc(CN(C(=O)c2ccccc2)C(CC2CCCCC2)CC2CCCCC2)cc1-c1ccccc1C)C(=O)O [Example 910]
The “% inhibition at 1 × 10^-6 M” value of the first is higher: 85% for the first, 42% for the second.

First: CSCC[C@H](NC(=O)c1ccc(CN(CC(C)C)C(CC2CCCCC2)CC2CCCCC2)cc1-c1ccccc1C)C(=O)O [Example 908]
Second: CSCC[C@H](NC(=O)c1ccc(CN(C(CC2CCCCC2)CC2CCCCC2)S(=O)(=O)c2ccccc2)cc1-c1ccccc1C)C(=O)O [Example 911]
The “% inhibition at 1 × 10^-6 M” value of the first is higher: 88% for the first, 65% for the second.

Same assay, conditions: Table 3; 1 × 10^-7 M

First: CCSC[C@H](CC(C)C)N(C)Cc1ccc(C(=O)N[C@@H](CCSC)C(=O)O)c(-c2ccccc2C)c1 [Example 906]
Second: CCCCN(CCCC)Cc1ccc(C(=O)N[C@@H](CCSC)C(=O)O)c(-c2ccccc2C)c1 [Example 917]
The “% inhibition at 1 × 10^-7 M” value of the first is higher: 88% for the first, 78% for the second.

First: CCCCN(CCCC)C(=O)CNCc1ccc(C(=O)N[C@@H](CCSC)C(=O)O)c(-c2ccccc2C)c1 [Example 912]
Second: CCCCN(CCCC)C(=O)CN(C)Cc1ccc(C(=O)N[C@@H](CCSC)C(=O)O)c(-c2ccccc2C)c1 [Example 913]
The “% inhibition at 1 × 10^-7 M” value of the first is lower: 85% for the first, 89% for the second.

First: CSCC[C@H](NC(=O)c1ccc(CNCC(=O)N(Cc2ccccc2)Cc2ccccc2)cc1-c1ccccc1C)C(=O)O [Example 914]
Second: CCCC(CCC)NOCc1ccc(C(=O)N[C@@H](CCSC)C(=O)O)c(-c2ccccc2C)c1 [Example 929]
The “% inhibition at 1 × 10^-7 M” value of the first is higher: 91% for the first, 81% for the second.

Same assay, conditions: Table 4; 1 × 10^-8 M

Compared with `CCSC[C@H](CC(C)C)NCc1ccc(C(=O)N[C@@H](CCSC)C(=O)O)c(-c2ccccc2C)c1` [Example 905], `CCCCN(CCc1ccccc1)Cc1ccc(C(=O)N[C@@H](CCSC)C(=O)O)c(-c2ccccc2C)c1` [Example 928] is lower in “% inhibition at 1 × 10^-8 M” value: 86% for the first, 84% for the second.

`CSCC[C@H](NC(=O)c1ccc(CN(C)C(CC2CCCCC2)CC2CCCCC2)cc1-c1ccccc1C)C(=O)O` [Example 907] and `CSCC[C@H](NC(=O)c1ccc(CN(C(C)=O)C(CC2CCCCC2)CC2CCCCC2)cc1-c1ccccc1C)C(=O)O` [Example 909] are the same in “% inhibition at 1 × 10^-8 M” value: 79% for the first, 79% for the second.

Going from `CCCCS(=O)(=O)N(CCC1CCCCC1)Cc1ccc(C(=O)N[C@@H](CCSC)C(=O)O)c(-c2ccccc2C)c1` [Example 916] to `CCCCS(=O)(=O)N(CCCc1ccccc1)Cc1ccc(C(=O)N[C@@H](CCSC)C(=O)O)c(-c2ccccc2C)c1` [Example 927], the “% inhibition at 1 × 10^-8 M” value falls from 96% to 74%.

Same assay, conditions: read-out: % inhibition at 1 × 10^-6 M; Table 2; 1 × 10^-6 M

Compared with `CSCC[C@H](NC(=O)c1cc(Cc2ccccc2)c(COCc2ccccc2)cc1-c1ccccc1C)C(=O)O` [Example 923, N-[5-Benzyl-4-benzyloxymethyl-2-(2-methylphenyl)benzoyl]methionine], `CSCC[C@H](NC(=O)c1cc(Cc2ccccc2)c(COCCCc2ccccc2)cc1-c1ccccc1C)C(=O)O` [Example 925] is higher in inhibition at 1 µM: 78% for the first, 87% for the second.

For `CSCC[C@H](NC(=O)c1cc(Cc2ccccc2)c(COCc2ccco2)cc1-c1ccccc1C)C(=O)O` [Example 924], the inhibition at 1 µM was 77%.

Same assay, conditions: read-out: % inhibition at 1 × 10^-8 M

Compared with `CSCC[C@H](NC(=O)c1ccc(COCc2cnc(-c3ccc(Cl)cc3)s2)cc1-c1ccccc1C)C(=O)O` [Example 901, N-[4-(2-(4-chlorophenyl)thiazol-5-ylmethoxymethyl)-2-(2-methylphenyl)benzoyl]methionine lithium salt], `CSCC[C@H](NC(=O)c1ccc(COCc2cc(-c3ccc(Cl)cc3)co2)cc1-c1ccccc1C)C(=O)O` [Example 904, N-[4-(4-(4-chlorophenyl)furan-2-ylmethoxymethyl)-2-(2-methylphenyl)benzoyl]methionine lithium salt] is higher in inhibition at 0.01 µM: 84% for the first, 85% for the second.
